{
  "source": "the Kinase Knowledgebase extract (Sharma et al. 2016)",
  "data": [
    {"target": "PIK3CD (Human) (UniProt O00329)", "sequence (O00329 whole entry, looked up)": "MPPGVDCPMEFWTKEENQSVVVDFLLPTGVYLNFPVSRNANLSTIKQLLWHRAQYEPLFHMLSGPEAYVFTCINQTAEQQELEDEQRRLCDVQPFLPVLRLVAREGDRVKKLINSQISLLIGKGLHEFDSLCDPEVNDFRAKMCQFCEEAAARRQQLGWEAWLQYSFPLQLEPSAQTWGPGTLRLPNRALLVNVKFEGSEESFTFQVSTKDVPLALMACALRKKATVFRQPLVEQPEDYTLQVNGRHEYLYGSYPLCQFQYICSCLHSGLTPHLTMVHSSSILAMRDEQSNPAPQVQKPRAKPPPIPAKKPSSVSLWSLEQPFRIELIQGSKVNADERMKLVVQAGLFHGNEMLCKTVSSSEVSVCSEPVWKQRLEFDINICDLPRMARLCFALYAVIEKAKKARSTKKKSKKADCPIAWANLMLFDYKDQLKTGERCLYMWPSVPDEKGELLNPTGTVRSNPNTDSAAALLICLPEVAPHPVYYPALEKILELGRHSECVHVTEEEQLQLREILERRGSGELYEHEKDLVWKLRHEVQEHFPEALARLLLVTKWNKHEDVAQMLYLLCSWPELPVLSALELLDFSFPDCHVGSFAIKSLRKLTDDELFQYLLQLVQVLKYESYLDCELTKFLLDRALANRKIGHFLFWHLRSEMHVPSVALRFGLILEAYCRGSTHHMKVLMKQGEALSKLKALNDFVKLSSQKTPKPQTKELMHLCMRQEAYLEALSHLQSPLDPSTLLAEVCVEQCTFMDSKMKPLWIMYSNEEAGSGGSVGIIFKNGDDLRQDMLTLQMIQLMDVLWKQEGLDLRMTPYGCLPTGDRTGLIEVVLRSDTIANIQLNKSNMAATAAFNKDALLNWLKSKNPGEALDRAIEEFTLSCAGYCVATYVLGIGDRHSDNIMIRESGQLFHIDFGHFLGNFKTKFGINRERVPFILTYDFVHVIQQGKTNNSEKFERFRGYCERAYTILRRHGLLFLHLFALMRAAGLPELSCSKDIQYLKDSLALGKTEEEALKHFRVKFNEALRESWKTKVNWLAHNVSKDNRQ", "test": "Assessment of PIK3CD Kinase Activity (Scintillation Proximity Assay)", "units": {"IC50": "µM"}, "values": [
      {"smiles": "COc1c(C(C)n2nc(C)c3c(N)ncnc32)cc(Cl)c(C)c1C1CN(C(C)C#N)C1", "note": "(centres undefined)", "IC50": "≤ 0.01"},
      {"smiles": "COc1c(C(C)n2nc(C)c3c(N)ncnc32)cc(Cl)c(C)c1CC1CC1", "note": "(centres undefined)", "IC50": "0.05 to 0.2"},
      {"smiles": "CCOc1c(C(C)n2nc(I)c3c(N)ncnc32)cc(Cl)c(C)c1-c1ccc(C(=O)N(C)C)nc1", "note": "(centres undefined)", "IC50": "≤ 0.01"},
      {"smiles": "CCOc1c(C(C)n2nc(C)c3c(N)ncnc32)cc(Cl)c(C)c1C1CN(C[C@H](C)O)C1", "note": "(some centres undefined)", "IC50": "≤ 0.01"},
      {"smiles": "COc1c(C(C)n2nc(C(F)F)c3c(N)ncnc32)cc(C#N)c(C)c1C1CN(C[C@H](C)O)C1", "note": "(some centres undefined)", "IC50": "≤ 0.01"},
      {"smiles": "COc1c(C(C)n2nc(C(F)F)c3c(N)ncnc32)cc(C#N)c(C)c1C1CN(C(C)C)C1", "note": "(centres undefined)", "IC50": "≤ 0.01"},
      {"smiles": "COc1c(C(C)n2nc(C)c3c(N)ncnc32)cc(Cl)c(C)c1-c1ccnc(C(=O)N(C)CCO)c1", "note": "(centres undefined)", "IC50": "≤ 0.01"},
      {"smiles": "CCOc1c(C(C)n2nc(C)c3c(N)ncnc32)cc(Cl)c(F)c1C1CNC(=O)O1", "note": "(centres undefined)", "IC50": "≤ 0.01"},
      {"smiles": "CCOc1c(C(C)n2nc(C)c3c(N)ncnc32)cc(Cl)c(C)c1-c1cnn(CC(N)=O)c1", "note": "(centres undefined)", "IC50": "≤ 0.01"},
      {"smiles": "CCOc1c(C(C)n2nc(C)c3c(N)ncnc32)cc(Cl)c(C#N)c1C1CN(C(=O)NC)C1", "note": "(centres undefined)", "IC50": "≤ 0.01"},
      {"smiles": "CCOc1c(C(C)n2nc(C)c3c(N)ncnc32)cc(Cl)c(C#N)c1C1CN(C(C)(C)C(=O)NC)C1", "note": "(centres undefined)", "IC50": "≤ 0.01"},
      {"smiles": "COc1c(C(C)n2nc(C)c3c(N)ncnc32)cc(Cl)c(F)c1C1CN(CCO)C1", "note": "(centres undefined)", "IC50": "≤ 0.01"},
      {"smiles": "COc1c(C(C)n2nc(C)c3c(N)ncnc32)cc(Cl)c(C#N)c1C1CN(C2CCOCC2)C1", "note": "(centres undefined)", "IC50": "≤ 0.01"},
      {"smiles": "CCOc1c(C(C)n2nc(C)c3c(N)ncnc32)cc(Cl)c(C#N)c1C1CN(C(COC)COC)C1", "note": "(centres undefined)", "IC50": "≤ 0.01"},
      {"smiles": "CCOc1c(C(C)n2nc(CC)c3c(N)ncnc32)cc(Cl)c(C)c1-c1ccc(C(=O)N(C)C)nc1", "note": "(centres undefined)", "IC50": "0.05 to 0.2"},
      {"smiles": "COc1c(C(C)n2ccc(=O)c3c(N)ncnc32)cc(Cl)c(C)c1-c1cccnc1", "note": "(centres undefined)", "IC50": "≤ 0.01"},
      {"smiles": "COc1c(C(C)n2nc(C)c3c(N)ncnc32)cc(Cl)c(C)c1C1CN(C(=O)c2cn[nH]c2)C1", "note": "(centres undefined)", "IC50": "≤ 0.01"},
      {"smiles": "CCOc1c(C(C)n2nc(C)c3c(N)ncnc32)cc(Cl)c(C)c1-c1ccc(C(=O)N(C)C)cn1", "note": "(centres undefined)", "IC50": "≤ 0.01"},
      {"smiles": "COc1c(C(C)n2nc(C(F)F)c3c(N)ncnc32)cc(C#N)c(C)c1C1CN(C[C@@H](C)O)C1", "note": "(some centres undefined)", "IC50": "≤ 0.01"},
      {"smiles": "COc1c(C(C)n2nc(C)c3c(N)ncnc32)cc(Cl)c(C#N)c1C1CN(C[C@H](C)O)C1", "note": "(some centres undefined)", "IC50": "≤ 0.01"},
      {"smiles": "COc1c(C(C)n2nc(C)c3c(N)ncnc32)cc(Cl)c(C)c1C1CN(C(=O)c2cnoc2C)C1", "note": "(centres undefined)", "IC50": "≤ 0.01"},
      {"smiles": "CCOc1c(C(C)n2nc(C)c3c(N)ncnc32)cc(C)c(C#N)c1N1CCCC1", "note": "(centres undefined)", "IC50": "≤ 0.01"},
      {"smiles": "CCOc1c(C(C)n2nc(C)c3c(N)ncnc32)cc(C)c(C#N)c1-c1cnn(C)c1", "note": "(centres undefined)", "IC50": "≤ 0.01"},
      {"smiles": "CCOc1c(C(C)n2nc(C)c3c(N)ncnc32)cc(Cl)c(C#N)c1N1CC(COC)C1", "note": "(centres undefined)", "IC50": "≤ 0.01"},
      {"smiles": "COc1c(C(C)n2nc(C)c3c(N)ncnc32)cc(Cl)c(C)c1-c1cnn(C(C)C(=O)N(C)C)c1", "note": "(centres undefined)", "IC50": "≤ 0.01"},
      {"smiles": "COc1c(C(C)n2nc(C)c3c(N)ncnc32)cc(Cl)c(C#N)c1C1CN(C)C1", "note": "(centres undefined)", "IC50": "≤ 0.01"},
      {"smiles": "CCOc1c(C(C)n2nc(C)c3c(N)ncnc32)cc(Cl)c(C#N)c1C1CN(C(C)(C)C(=O)N(C)C)C1", "note": "(centres undefined)", "IC50": "≤ 0.01"},
      {"smiles": "CCOc1c(C(C)n2nc(C)c3c(N)ncnc32)cc(Cl)c(C)c1-c1cnn(CC(=O)NC)c1", "note": "(centres undefined)", "IC50": "≤ 0.01"},
      {"smiles": "CCOc1c(C(C)n2nc(-c3cnc(N)nc3)c3c(N)ncnc32)cc(Cl)c(C)c1-c1ccc(C(=O)N(C)C)nc1", "note": "(centres undefined)", "IC50": "≤ 0.01"},
      {"smiles": "COc1c(C(C)n2nc(C)c3c(N)ncnc32)cc(Cl)c(C)c1-c1ccnc(C(=O)N(C)C)c1", "note": "(centres undefined)", "IC50": "≤ 0.01"},
      {"smiles": "CCOc1c(C(C)n2nc(C)c3c(N)ncnc32)cc(Cl)c(C#N)c1C1CNC(=O)O1", "note": "(centres undefined)", "IC50": "≤ 0.01"},
      {"smiles": "CCC(=O)N1CC(c2c(C#N)c(Cl)cc(C(C)n3nc(C)c4c(N)ncnc43)c2OC)C1", "note": "(centres undefined)", "IC50": "≤ 0.01"},
      {"smiles": "CCOc1c(C(C)n2nc(C)c3c(N)ncnc32)cc(Cl)c(C#N)c1-c1ccnc(C(=O)N(C)C)c1", "note": "(centres undefined)", "IC50": "≤ 0.01"},
      {"smiles": "CCOc1c(C(C)n2nc(C)c3c(N)ncnc32)cc(Cl)c(C#N)c1C1CN(C(C)=O)C1", "note": "(centres undefined)", "IC50": "≤ 0.01"},
      {"smiles": "CCOc1c(C(C)n2nc(C)c3c(N)ncnc32)cc(Cl)c(C)c1-c1cncc(S(C)(=O)=O)c1", "note": "(centres undefined)", "IC50": "≤ 0.01"},
      {"smiles": "COc1c(C(C)n2nc(C)c3c(N)ncnc32)cc(Cl)c(C)c1C1CN(C(C)CF)C1", "note": "(centres undefined)", "IC50": "≤ 0.01"},
      {"smiles": "CCOc1c(C(C)n2nc(C)c3c(N)ncnc32)cc(Cl)c(C)c1C1CN(CCO)C1", "note": "(centres undefined)", "IC50": "≤ 0.01"},
      {"smiles": "CCOc1c(C(C)n2nc(-c3ccc(C(=O)N(C)C)nc3)c3c(N)ncnc32)cc(Cl)c(C)c1-c1ccc(C(=O)N(C)C)nc1", "note": "(centres undefined)", "IC50": "0.01 to 0.05"},
      {"smiles": "CCOc1c(C(C)n2nc(C)c3c(N)ncnc32)cc(Cl)c(F)c1C1CN(C)C1", "note": "(centres undefined)", "IC50": "≤ 0.01"},
      {"smiles": "COc1c(C(C)n2nc(C)c3c(N)ncnc32)cc(Cl)c(C)c1C1CCN(C)CC1", "note": "(centres undefined)", "IC50": "≤ 0.01"},
      {"smiles": "CCOc1c(C(C)n2nc(C)c3c(N)ncnc32)cc(Cl)c(C#N)c1C1CN(C(N)=O)C1", "note": "(centres undefined)", "IC50": "≤ 0.01"},
      {"smiles": "COc1c(C(C)n2nc(C)c3c(N)ncnc32)cc(Cl)c(C)c1-c1ccc(C(=O)NCCO)nc1", "note": "(centres undefined)", "IC50": "≤ 0.01"},
      {"smiles": "CCOc1c(C(C)n2nc(C)c3c(N)ncnc32)cc(Cl)c(C#N)c1C1CN(C2CCOCC2)C1", "note": "(centres undefined)", "IC50": "≤ 0.01"},
      {"smiles": "CCOc1c(C(C)n2nc(-c3cncc(C#N)c3)c3c(N)ncnc32)cc(Cl)c(C)c1-c1ccc(C(=O)N(C)C)nc1", "note": "(centres undefined)", "IC50": "≤ 0.01"},
      {"smiles": "CCOc1c(C(C)n2nc(C)c3c(N)ncnc32)cc(Cl)c(C)c1-c1cnn(C)c1", "note": "(centres undefined)", "IC50": "≤ 0.01"},
      {"smiles": "CCOc1c(C(C)n2nc(-c3cnn(C)c3)c3c(N)ncnc32)cc(Cl)c(C)c1-c1ccc(C(=O)N(C)C)nc1", "note": "(centres undefined)", "IC50": "≤ 0.01"},
      {"smiles": "CCOc1c(C(C)n2nc(C)c3c(N)ncnc32)cc(Cl)c(F)c1C1CN(CC(N)=O)C1", "note": "(centres undefined)", "IC50": "≤ 0.01"},
      {"smiles": "COc1c(C(C)n2nc(C)c3c(N)ncnc32)cc(Cl)c(C)c1C1CN(CC(C)C)C1", "note": "(centres undefined)", "IC50": "≤ 0.01"},
      {"smiles": "CCOc1c(C(C)n2nc(C)c3c(N)ncnc32)cc(Cl)c(C#N)c1C1CN(CC2CCOCC2)C1", "note": "(centres undefined)", "IC50": "≤ 0.01"},
      {"smiles": "COc1c(C(C)n2nc(C)c3c(N)ncnc32)cc(Cl)c(C)c1CCC(=O)N(C)C", "note": "(centres undefined)", "IC50": "≤ 0.01"},
      {"smiles": "COc1c(C(C)n2nc(C)c3c(N)ncnc32)cc(Cl)c(C)c1-c1ccc(NCCO)nc1", "note": "(centres undefined)", "IC50": "≤ 0.01"},
      {"smiles": "CCOc1c(C(C)n2nc(C)c3c(N)ncnc32)cc(Cl)c(C#N)c1-c1cncc(-c2ncco2)c1", "note": "(centres undefined)", "IC50": "≤ 0.01"},
      {"smiles": "CCOc1c(C(C)n2nc(C)c3c(N)ncnc32)cc(Cl)c(C)c1C1CN(C(=O)[C@H](C)O)C1", "note": "(some centres undefined)", "IC50": "≤ 0.01"},
      {"smiles": "COc1c(C(C)n2nc(C)c3c(N)ncnc32)cc(Cl)c(C)c1C1CN(C[C@@H](O)C(F)(F)F)C1", "note": "(some centres undefined)", "IC50": "≤ 0.01"},
      {"smiles": "COc1c(C(C)n2nc(C)c3c(N)ncnc32)cc(Cl)c(C#N)c1C1CN(CC2CCOC2)C1", "note": "(centres undefined)", "IC50": "≤ 0.01"},
      {"smiles": "COc1c(C(C)n2nc(C)c3c(N)ncnc32)cc(Cl)c(C)c1CC#N", "note": "(centres undefined)", "IC50": "≤ 0.01"},
      {"smiles": "CCOc1c(C(C)n2nc(C)c3c(N)ncnc32)cc(Cl)c(C#N)c1C1CN(C[C@H](C)O)C1", "note": "(some centres undefined)", "IC50": "≤ 0.01"},
      {"smiles": "CCOc1c(C(C)n2nc(C)c3c(N)ncnc32)cc(C)c(C#N)c1-c1ccnc(S(C)(=O)=O)c1", "note": "(centres undefined)", "IC50": "≤ 0.01"},
      {"smiles": "COc1c(C(C)n2nc(C)c3c(N)ncnc32)cc(Cl)c(C#N)c1C1CN(C(=O)N(C)C)C1", "note": "(centres undefined)", "IC50": "≤ 0.01"},
      {"smiles": "CNC(=O)c1ccc(-c2c(C)c(Cl)cc(C(C)n3ccc(=O)c4c(N)ncnc43)c2OC)cn1", "note": "(centres undefined)", "IC50": "≤ 0.01"},
      {"smiles": "COc1c(C(C)n2ccc3c(N)ncnc32)cc(Cl)c(C)c1-c1ccc(C(=O)N(C)C)nc1", "note": "(centres undefined)", "IC50": "0.2 to 0.5"},
      {"smiles": "CCOc1c(C(C)n2nc(C)c3c(N)ncnc32)cc(C)c(C#N)c1C1CN(C[C@H](C)O)C1", "note": "(some centres undefined)", "IC50": "≤ 0.01"},
      {"smiles": "CCOc1c(C(C)n2nc(C)c3c(N)ncnc32)cc(Cl)c(C#N)c1C1CN(C)C1", "note": "(centres undefined)", "IC50": "≤ 0.01"},
      {"smiles": "CCN1CC(c2c(C)c(Cl)cc(C(C)n3nc(C)c4c(N)ncnc43)c2OC)C1", "note": "(centres undefined)", "IC50": "≤ 0.01"}
    ]}
  ]
}
